How the values were obtained:
Assay in all cases: Kinase selectivity, scanMAX Kinase assay panel (DiscoverX), % control at 1 uM
Assay type in all cases: binding
[1] = target: T1, scanMAX Kinase assay panel (Homo sapiens, UniProt P31751); conditions: AKT2; 1 uM; read-out: Percent Control (%)
T1 construct: purchased DiscoverX
In short: (§1)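 Binding across the scanMAX kinase panel was tested at 1 uM compound. % control = (compound − positive control)/(negative control − positive control) × 100; below 35 counted as active.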

[2] = target: T2, scanMAX Kinase assay panel (Homo sapiens, UniProt Q04771); conditions: ACVR1; 1 uM; read-out: Percent Control (%)
T2 construct: purchased DiscoverX
T2 sequence (Q04771 21-509): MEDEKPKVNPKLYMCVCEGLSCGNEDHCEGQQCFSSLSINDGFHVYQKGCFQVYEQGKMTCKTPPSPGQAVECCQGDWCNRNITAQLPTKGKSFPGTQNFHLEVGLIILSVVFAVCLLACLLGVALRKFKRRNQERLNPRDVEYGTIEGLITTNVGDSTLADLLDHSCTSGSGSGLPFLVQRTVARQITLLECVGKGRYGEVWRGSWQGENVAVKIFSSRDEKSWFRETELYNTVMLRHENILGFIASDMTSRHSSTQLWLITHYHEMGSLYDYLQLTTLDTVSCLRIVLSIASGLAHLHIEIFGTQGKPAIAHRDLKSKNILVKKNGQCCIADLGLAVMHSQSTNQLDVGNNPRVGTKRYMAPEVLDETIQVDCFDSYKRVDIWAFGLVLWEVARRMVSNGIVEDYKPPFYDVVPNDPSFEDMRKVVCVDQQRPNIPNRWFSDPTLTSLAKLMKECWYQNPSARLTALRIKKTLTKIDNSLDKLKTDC
In short: as §1

[3] = target: T3, scanMAX Kinase assay panel (Homo sapiens, UniProt Q15139); conditions: PRKD1; 1 uM; read-out: Percent Control (%)
T3 construct: purchased DiscoverX
T3 sequence (Q15139 1-912): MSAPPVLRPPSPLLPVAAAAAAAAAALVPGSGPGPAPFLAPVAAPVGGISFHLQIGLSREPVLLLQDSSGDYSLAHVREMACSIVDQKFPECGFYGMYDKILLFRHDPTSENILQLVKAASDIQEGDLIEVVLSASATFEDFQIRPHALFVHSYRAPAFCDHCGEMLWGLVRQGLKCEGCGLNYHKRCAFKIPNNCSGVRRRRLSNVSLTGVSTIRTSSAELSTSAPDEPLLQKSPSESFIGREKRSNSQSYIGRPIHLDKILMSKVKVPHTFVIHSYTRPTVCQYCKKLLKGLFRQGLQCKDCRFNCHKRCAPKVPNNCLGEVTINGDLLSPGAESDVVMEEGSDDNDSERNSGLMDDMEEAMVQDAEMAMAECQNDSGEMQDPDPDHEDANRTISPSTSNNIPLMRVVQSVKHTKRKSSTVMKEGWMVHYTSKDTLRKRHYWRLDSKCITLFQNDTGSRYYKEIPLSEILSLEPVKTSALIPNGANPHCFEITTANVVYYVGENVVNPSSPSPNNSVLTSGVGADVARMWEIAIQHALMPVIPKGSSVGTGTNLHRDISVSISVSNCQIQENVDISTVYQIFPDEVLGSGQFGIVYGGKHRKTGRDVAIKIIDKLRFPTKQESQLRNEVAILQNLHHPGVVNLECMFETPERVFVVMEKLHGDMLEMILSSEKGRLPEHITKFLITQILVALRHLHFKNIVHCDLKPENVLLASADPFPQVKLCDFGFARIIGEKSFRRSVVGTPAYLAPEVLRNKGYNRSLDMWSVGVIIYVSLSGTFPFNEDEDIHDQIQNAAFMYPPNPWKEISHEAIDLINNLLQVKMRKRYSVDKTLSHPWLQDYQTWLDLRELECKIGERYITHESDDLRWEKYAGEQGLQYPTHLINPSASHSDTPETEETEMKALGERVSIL
In short: as §1

[4] = target: T4, scanMAX Kinase assay panel (Homo sapiens, UniProt P29376); conditions: LTK; 1 uM; read-out: Percent Control (%)
T4 construct: purchased DiscoverX
In short: as §1

[5] = target: T5, scanMAX Kinase assay panel (Homo sapiens, UniProt P30530); conditions: AXL; 1 uM; read-out: Percent Control (%)
T5 construct: purchased DiscoverX
T5 sequence (P30530 26-894): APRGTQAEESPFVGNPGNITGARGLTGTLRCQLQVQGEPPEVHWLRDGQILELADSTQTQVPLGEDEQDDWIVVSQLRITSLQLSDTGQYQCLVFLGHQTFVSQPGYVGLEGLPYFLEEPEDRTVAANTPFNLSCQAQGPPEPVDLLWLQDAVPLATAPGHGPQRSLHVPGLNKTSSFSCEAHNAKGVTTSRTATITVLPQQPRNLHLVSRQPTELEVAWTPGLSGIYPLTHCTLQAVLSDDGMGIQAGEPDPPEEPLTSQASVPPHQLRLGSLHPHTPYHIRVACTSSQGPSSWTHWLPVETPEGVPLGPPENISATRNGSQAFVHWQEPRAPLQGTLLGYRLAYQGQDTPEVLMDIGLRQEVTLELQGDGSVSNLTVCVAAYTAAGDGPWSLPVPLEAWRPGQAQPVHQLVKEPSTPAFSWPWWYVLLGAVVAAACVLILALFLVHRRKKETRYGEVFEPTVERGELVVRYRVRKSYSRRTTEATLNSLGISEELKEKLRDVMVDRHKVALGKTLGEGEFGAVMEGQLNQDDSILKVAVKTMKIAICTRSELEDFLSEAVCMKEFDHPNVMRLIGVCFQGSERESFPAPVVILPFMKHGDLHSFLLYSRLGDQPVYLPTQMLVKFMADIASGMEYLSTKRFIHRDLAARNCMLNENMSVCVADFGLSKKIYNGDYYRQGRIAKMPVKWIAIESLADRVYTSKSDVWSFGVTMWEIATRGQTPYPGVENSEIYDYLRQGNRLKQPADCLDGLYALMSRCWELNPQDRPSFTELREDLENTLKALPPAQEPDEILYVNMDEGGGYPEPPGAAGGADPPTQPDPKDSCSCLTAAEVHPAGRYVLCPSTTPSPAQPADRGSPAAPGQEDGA
In short: as §1

[6] = target: T6, scanMAX Kinase assay panel (Homo sapiens, UniProt Q15208); conditions: NDR1; 1 uM; read-out: Percent Control (%)
T6 construct: purchased DiscoverX
In short: as §1

[7] = target: T7, scanMAX Kinase assay panel (Homo sapiens, UniProt Q16539); conditions: p38-alpha; 1 uM; read-out: Percent Control (%)
T7 construct: purchased DiscoverX
In short: as §1

T4 sequence (P29376 17-864): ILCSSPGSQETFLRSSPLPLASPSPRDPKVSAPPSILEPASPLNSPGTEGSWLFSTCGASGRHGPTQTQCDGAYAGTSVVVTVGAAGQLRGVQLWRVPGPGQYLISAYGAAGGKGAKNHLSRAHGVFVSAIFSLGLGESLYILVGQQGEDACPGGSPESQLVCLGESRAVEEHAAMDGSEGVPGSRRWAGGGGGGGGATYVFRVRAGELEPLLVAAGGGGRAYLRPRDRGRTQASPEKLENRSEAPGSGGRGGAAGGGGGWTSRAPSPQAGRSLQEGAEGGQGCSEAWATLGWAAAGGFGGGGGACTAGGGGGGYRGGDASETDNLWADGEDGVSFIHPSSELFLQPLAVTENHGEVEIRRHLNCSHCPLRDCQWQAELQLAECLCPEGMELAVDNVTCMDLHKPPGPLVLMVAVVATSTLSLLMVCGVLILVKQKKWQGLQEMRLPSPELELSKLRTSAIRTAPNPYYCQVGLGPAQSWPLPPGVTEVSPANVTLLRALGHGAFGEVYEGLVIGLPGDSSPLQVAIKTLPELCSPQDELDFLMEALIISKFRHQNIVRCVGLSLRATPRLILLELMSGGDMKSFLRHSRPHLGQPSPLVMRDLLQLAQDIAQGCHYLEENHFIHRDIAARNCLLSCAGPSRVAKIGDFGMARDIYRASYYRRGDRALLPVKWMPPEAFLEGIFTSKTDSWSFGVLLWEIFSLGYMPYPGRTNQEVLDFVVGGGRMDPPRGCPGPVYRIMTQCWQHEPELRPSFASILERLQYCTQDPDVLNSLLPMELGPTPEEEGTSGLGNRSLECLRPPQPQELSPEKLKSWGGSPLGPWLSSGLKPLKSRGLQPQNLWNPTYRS
T7 sequence (Q16539 whole entry): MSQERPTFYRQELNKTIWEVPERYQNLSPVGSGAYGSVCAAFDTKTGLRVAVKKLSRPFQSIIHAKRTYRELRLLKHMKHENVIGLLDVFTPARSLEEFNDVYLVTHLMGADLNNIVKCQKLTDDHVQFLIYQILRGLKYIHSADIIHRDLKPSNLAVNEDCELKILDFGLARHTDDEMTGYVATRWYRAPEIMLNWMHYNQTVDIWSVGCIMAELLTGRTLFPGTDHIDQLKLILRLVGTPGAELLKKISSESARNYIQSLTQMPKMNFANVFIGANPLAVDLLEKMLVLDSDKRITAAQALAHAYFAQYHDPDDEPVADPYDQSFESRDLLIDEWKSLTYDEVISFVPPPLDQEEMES
T6 sequence (Q15208 whole entry): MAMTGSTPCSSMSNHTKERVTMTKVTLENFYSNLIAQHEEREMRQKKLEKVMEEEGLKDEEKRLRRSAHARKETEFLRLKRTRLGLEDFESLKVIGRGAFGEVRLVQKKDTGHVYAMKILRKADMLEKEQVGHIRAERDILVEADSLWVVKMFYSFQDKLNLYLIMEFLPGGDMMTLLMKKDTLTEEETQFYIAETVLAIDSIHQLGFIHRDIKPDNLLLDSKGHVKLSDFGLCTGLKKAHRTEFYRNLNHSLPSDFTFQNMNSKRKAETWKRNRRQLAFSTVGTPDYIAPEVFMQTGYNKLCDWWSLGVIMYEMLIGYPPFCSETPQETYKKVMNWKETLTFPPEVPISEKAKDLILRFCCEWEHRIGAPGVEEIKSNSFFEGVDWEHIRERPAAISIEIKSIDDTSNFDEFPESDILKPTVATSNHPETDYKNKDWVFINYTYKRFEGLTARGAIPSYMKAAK
T1 sequence (P31751 whole entry): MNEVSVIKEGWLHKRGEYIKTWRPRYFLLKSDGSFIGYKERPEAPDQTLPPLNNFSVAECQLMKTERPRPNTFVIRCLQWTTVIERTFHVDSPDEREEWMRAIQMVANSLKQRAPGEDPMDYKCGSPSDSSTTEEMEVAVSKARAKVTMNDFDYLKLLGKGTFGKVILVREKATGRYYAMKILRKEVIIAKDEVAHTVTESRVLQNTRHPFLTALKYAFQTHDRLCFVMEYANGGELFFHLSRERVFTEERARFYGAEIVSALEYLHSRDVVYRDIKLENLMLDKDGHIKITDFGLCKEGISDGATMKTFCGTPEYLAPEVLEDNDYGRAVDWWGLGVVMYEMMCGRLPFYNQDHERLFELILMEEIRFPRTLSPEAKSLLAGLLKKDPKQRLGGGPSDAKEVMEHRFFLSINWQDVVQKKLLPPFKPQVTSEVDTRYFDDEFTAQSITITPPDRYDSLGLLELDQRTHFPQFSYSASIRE

Compound	remaining binding at 1 µM [1] [%]	remaining binding at 1 µM [2] [%]	remaining binding at 1 µM [3] [%]	remaining binding at 1 µM [4] [%]	remaining binding at 1 µM [5] [%]	remaining binding at 1 µM [6] [%]	remaining binding at 1 µM [7] [%]
Cc1ccc(C(=O)Nc2ccc(CN3CCN(C)CC3)c(C(F)(F)F)c2)cc1C#Cc1cnc2c(Nc3cnn(C)c3)cccn12 [Example 1, 4-methyl-3-((8-((1-methyl-1H-pyrazol-4-yl)amino)imidazo[1,2-a]pyridin-3-yl)ethynyl)-N-(4-((4-methylpiperazin-1-yl)methyl)-3-(trifluoromethyl)phenyl)benzamide]	37	100	54	9	2	56	0
Cc1cn(-c2cc(NC(=O)c3ccc(C)c(C#Cc4cnc5c(Nc6cnn(C)c6)cccn45)c3)cc(C(F)(F)F)c2)cn1 [Example 12, 4-methyl-N-(3-(4-methyl-1H-imidazol-1-yl)-5-(trifluoromethyl)phenyl)-3-((8-((1-methyl-1H-pyrazol-4-yl)amino)imidazo[1,2-a]pyridin-3-yl)ethynyl)benzamide]	82	100	94	12	48	98	7
Cc1ccc(NC(=O)C2(C(=O)Nc3ccc(F)cc3)CC2)cc1C#Cc1cnc2c(Nc3cnn(C(C)C)c3)cccn12 [Example 78]	99	100	100	94	93	83	14

Reference: patent US10870647B2, “Imidazopyridine derivative, method for preparing same, and pharmaceutical composition containing same as active ingredient for preventing or treating cancer” (DAEGU-GYEONGBUK MEDICAL INNOVATION FOUNDATION, priority 2016, dated 2020)
